PubChem BioAssay (NCI)
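These data come from cells grown in 96-well plates and exposed to compound for 48 hours at five concentrations. GI50 = concentration required for 50% inhibition of growth. TGI: total growth inhibition.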

How the values were obtained:
Assay in all cases: DTP human tumour cell line panel, 48 h
SR leukemia = system: SR leukemia
SNB-75 CNS = system: SNB-75 CNS
COLO 205 colon = system: COLO 205 colon
LOX IMVI melanoma = system: LOX IMVI melanoma
OVCAR-3 ovarian = system: OVCAR-3 ovarian
SK-MEL-2 melanoma = system: SK-MEL-2 melanoma
SF-539 CNS = system: SF-539 CNS
UO-31 renal = system: UO-31 renal
K-562 leukemia = system: K-562 leukemia
TK-10 renal = system: TK-10 renal
EKVX NSCLC = system: EKVX NSCLC
HS 578T breast = system: HS 578T breast
HCC-2998 colon = system: HCC-2998 colon
NCI-H23 lung = system: NCI-H23 lung
NCI-H226 lung = system: NCI-H226 lung
RPMI-8226 leukemia = system: RPMI-8226 leukemia
T-47D breast = system: T-47D breast
MCF7 breast = system: MCF7 breast
SF-268 CNS = system: SF-268 CNS
KM12 colon = system: KM12 colon
UACC-257 melanoma = system: UACC-257 melanoma
OVCAR-5 ovarian = system: OVCAR-5 ovarian
ACHN renal = system: ACHN renal
MDA-MB-231 breast = system: MDA-MB-231 breast
CAKI-1 renal = system: CAKI-1 renal
HOP-62 NSCLC = system: HOP-62 NSCLC
DU-145 prostate = system: DU-145 prostate
NCI-H522 lung = system: NCI-H522 lung
A498 renal = system: A498 renal
PC-3 prostate = system: PC-3 prostate
RXF 393 renal = system: RXF 393 renal
NCI-H460 lung = system: NCI-H460 lung
SF-295 CNS = system: SF-295 CNS
HOP-92 NSCLC = system: HOP-92 NSCLC
SNB-19 CNS = system: SNB-19 CNS
786-0 renal = system: 786-0 renal
HL-60(TB) leukemia = system: HL-60(TB) leukemia
MOLT-4 leukemia = system: MOLT-4 leukemia
U251 CNS = system: U251 CNS
A549 NSCLC = system: A549 NSCLC

SMILES: CCN(CC)S(=O)(=O)c1ccc(-c2nc(C(Cl)Cl)nc3cc(C)nn23)cc1
- GI50 (SR leukemia): 2.4 µM
- TGI (SR leukemia): > 100 µM
- GI50 (SNB-75 CNS): 6.91 µM
- TGI (SNB-75 CNS): > 100 µM
- GI50 (COLO 205 colon): 1.85 µM
- TGI (COLO 205 colon): 4.17 µM
- GI50 (LOX IMVI melanoma): 6.32 µM
- TGI (LOX IMVI melanoma): > 100 µM
- GI50 (OVCAR-3 ovarian): 1.85 µM
- TGI (OVCAR-3 ovarian): 4.33 µM
- GI50 (SK-MEL-2 melanoma): > 100 µM
- TGI (SK-MEL-2 melanoma): > 100 µM
- GI50 (SF-539 CNS): 3.07 µM
- TGI (SF-539 CNS): > 100 µM
- GI50 (UO-31 renal): 2.78 µM
- TGI (UO-31 renal): > 100 µM
- GI50 (K-562 leukemia): 2.94 µM
- TGI (K-562 leukemia): > 100 µM
- GI50 (TK-10 renal): 3.03 µM
- TGI (TK-10 renal): > 100 µM
- GI50 (EKVX NSCLC): 2.05 µM
- TGI (EKVX NSCLC): 5.35 µM
- GI50 (HS 578T breast): 2.4 µM
- TGI (HS 578T breast): 7.08 µM
- GI50 (HCC-2998 colon): 1.7 µM
- TGI (HCC-2998 colon): 3.47 µM
- GI50 (NCI-H23 lung): 2.01 µM
- TGI (NCI-H23 lung): 4.96 µM
- GI50 (NCI-H226 lung): 5.36 µM
- TGI (NCI-H226 lung): > 100 µM
- GI50 (RPMI-8226 leukemia): 2.11 µM
- TGI (RPMI-8226 leukemia): 5.72 µM
- GI50 (T-47D breast): 4.03 µM
- TGI (T-47D breast): > 100 µM
- GI50 (MCF7 breast): 2.84 µM
- TGI (MCF7 breast): > 100 µM
- GI50 (SF-268 CNS): 3.32 µM
- TGI (SF-268 CNS): > 100 µM
- GI50 (KM12 colon): 1.89 µM
- TGI (KM12 colon): 5.35 µM
- GI50 (UACC-257 melanoma): 2.59 µM
- TGI (UACC-257 melanoma): 8.66 µM
- GI50 (OVCAR-5 ovarian): 3.07 µM
- TGI (OVCAR-5 ovarian): > 100 µM
- GI50 (ACHN renal): 1.87 µM
- TGI (ACHN renal): 5.12 µM
- GI50 (MDA-MB-231 breast): 2.55 µM
- TGI (MDA-MB-231 breast): > 100 µM
- GI50 (CAKI-1 renal): 1.96 µM
- TGI (CAKI-1 renal): 5.57 µM
- GI50 (HOP-62 NSCLC): 2.2 µM
- TGI (HOP-62 NSCLC): 7.4 µM
- GI50 (DU-145 prostate): 1.7 µM
- TGI (DU-145 prostate): 4.49 µM
- GI50 (NCI-H522 lung): 4.55 µM
- TGI (NCI-H522 lung): > 100 µM
- GI50 (A498 renal): 2.22 µM
- TGI (A498 renal): 9.24 µM
- GI50 (PC-3 prostate): 2.16 µM
- TGI (PC-3 prostate): 7.41 µM
- GI50 (RXF 393 renal): 1.71 µM
- TGI (RXF 393 renal): 5.17 µM
- GI50 (NCI-H460 lung): 1.85 µM
- TGI (NCI-H460 lung): 4.47 µM
- GI50 (SF-295 CNS): 2.13 µM
- TGI (SF-295 CNS): 6.77 µM
- GI50 (HOP-92 NSCLC): 1.9 µM
- TGI (HOP-92 NSCLC): 5.96 µM
- GI50 (SNB-19 CNS): 2.9 µM
- TGI (SNB-19 CNS): > 100 µM
- GI50 (786-0 renal): > 100 µM
- TGI (786-0 renal): > 100 µM
- GI50 (HL-60(TB) leukemia): 2.6 µM
- TGI (HL-60(TB) leukemia): > 100 µM
- GI50 (MOLT-4 leukemia): 3.32 µM
- TGI (MOLT-4 leukemia): > 100 µM
- GI50 (U251 CNS): 2.19 µM
- TGI (U251 CNS): > 100 µM
- GI50 (A549 NSCLC): 1.88 µM
- TGI (A549 NSCLC): 4.6 µM
